One assay concerns the target NLRP3 inflammasome (Homo sapiens (Human), UniProt Q96P20). The experiment in a line: Evaluation of NLRP3 inflammasome inhibitory activity (inhibition of IL-1β production in LPS/Nigericin-stimulated THP1-Null cells). In kind it is cell-based. The conditions noted are these: IL-1β production in THP1-Null cells, PMA, LPS 1 μg/mL, Nigericin 7.5 μmol/L, AlphaLISA. In outline: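 THP1-Null cells primed with 1 μg/mL LPS, then treated with test compound; supernatant IL-1β quantified by AlphaLISA. Inhibition calculated with blank wells as 100% and control wells as 0%.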
For orientation: Alpha assays give light when donor and acceptor beads are brought close together.
NLRP3 inflammasome, sequence (Q96P20 whole entry): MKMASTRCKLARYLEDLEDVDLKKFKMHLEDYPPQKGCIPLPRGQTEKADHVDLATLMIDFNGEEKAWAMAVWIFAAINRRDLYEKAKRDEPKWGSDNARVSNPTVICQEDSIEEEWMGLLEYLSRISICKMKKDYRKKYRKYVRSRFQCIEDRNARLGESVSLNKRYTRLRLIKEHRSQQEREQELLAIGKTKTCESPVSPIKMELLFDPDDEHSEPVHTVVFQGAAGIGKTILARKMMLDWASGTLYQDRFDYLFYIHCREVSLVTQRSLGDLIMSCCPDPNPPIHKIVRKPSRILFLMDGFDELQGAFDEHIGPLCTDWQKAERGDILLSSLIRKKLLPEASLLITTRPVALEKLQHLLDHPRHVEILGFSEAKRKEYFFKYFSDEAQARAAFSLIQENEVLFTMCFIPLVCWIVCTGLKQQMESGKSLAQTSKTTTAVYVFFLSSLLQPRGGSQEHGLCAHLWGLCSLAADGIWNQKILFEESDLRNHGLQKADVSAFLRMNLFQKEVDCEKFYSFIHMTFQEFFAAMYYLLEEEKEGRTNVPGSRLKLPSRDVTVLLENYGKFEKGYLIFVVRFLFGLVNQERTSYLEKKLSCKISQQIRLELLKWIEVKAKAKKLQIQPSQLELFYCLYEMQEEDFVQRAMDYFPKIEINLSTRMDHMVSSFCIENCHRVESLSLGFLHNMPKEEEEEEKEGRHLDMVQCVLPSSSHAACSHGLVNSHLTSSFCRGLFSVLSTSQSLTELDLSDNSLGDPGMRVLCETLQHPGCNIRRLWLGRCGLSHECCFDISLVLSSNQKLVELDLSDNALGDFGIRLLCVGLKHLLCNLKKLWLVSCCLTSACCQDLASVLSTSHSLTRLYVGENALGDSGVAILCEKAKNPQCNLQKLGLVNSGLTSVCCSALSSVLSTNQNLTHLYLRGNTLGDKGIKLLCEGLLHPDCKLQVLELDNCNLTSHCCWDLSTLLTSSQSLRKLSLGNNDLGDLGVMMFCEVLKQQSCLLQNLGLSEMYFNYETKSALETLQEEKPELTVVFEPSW
As for `Cc1cc(Cl)cc(C)c1-n1cc2c(=O)[nH]c(N3CCOCC3)nc2n1` [Example 166], the IC50 was found to be 16 nM. Still for that read-out and setting: as for `Cc1ccccc1-n1cc2c(=O)[nH]c(N(C)C)nc2n1` [Example 20], the figure is 6500 nM; as for `Cc1cc(C)c(-n2cc3c(=O)[nH]c(N4CC5C(C4)C5(F)F)nc3n2)c(C)c1` (stereo not shown) [Example 114], 27 nM; as for `O=c1[nH]c(N2CCOCC2)nc2nn(-c3ncc(C(F)(F)F)cc3Br)cc12` [Example 201], 190 nM. Same read-out and setting: the value for `Cc1cc(Br)ccc1-n1cc2c(=O)[nH]c(N3CC4CC3CO4)nc2n1` (racemic) [Example 159] was 11 nM; that for `Cc1cc(-n2cc3c(=O)[nH]c(N4CCOCC4)nc3n2)c(C)cc1Cl` [Example 265] was 350 nM; that for `Cc1cc(Br)ccc1-n1cc2c(=O)[nH]c(N3Cc4ccccc4C3)nc2n1` [Example 75] was 14 nM. Same read-out and setting: as for `Cc1cc(C)c(-n2cc3c(=O)[nH]c(N4CCOCC4)nc3n2)c(C)c1` [Example 96], the figure is 14 nM.

Compound `CC(=O)N1CCN(c2nc3nn(-c4c(C)cc(C5CC5)cc4C)cc3c(=O)[nH]2)[C@H](C)C1` [Example 290] had an IC50 of 10 nM. The same measure, in the same setting: as for `O=c1[nH]c(N2CCCC2)nc2nn(-c3ncc(C(F)(F)F)cc3Cl)cc12` [Example 157], the figure is 33 nM; as for `Cc1ccccc1-n1cc2c(=O)[nH]c(NCC(C)C)nc2n1` [Example 35], 1700 nM. The same measure, in the same setting: the value for `O=c1[nH]c(N2C[C@H]3C[C@@H]2CO3)nc2nn(-c3ccc(Br)cc3C(O)C3CC3)cc12` (stereo partly shown) [Example 309] was 110 nM; that for `Cc1ccc(-n2cc3c(=O)[nH]c(N4CCOCC4)nc3n2)c(C)c1` [Example 126] was 53 nM. For the compound `Cc1ccccc1-n1cc2c(=O)[nH]c(N3CCCCCC3)nc2n1` [Example 22], the IC50 amounted to 8200 nM. The same measure, in the same setting: the value for `COC[C@H]1CCN(c2nc3nn(-c4ccc(Br)cc4C)cc3c(=O)[nH]2)CCO1` [Example 193] was 42 nM; that for `[2H]C([2H])([2H])Nc1nc2nn(-c3c(C)cc(Br)cc3C)cc2c(=O)[nH]1` [Example 229] was 9.4 nM. The same measure, in the same setting: the value for `Cc1cc(C(F)(F)F)cc(C)c1-n1cc2c(=O)[nH]c(N3C[C@H]4C[C@@H]3CO4)nc2n1` [Example 249] was 3.3 nM; that for `O=c1[nH]c(NC2CCOCC2)nc2nn(-c3ccc(C(F)(F)F)cc3Cl)cc12` [Example 184] was 67 nM; that for `Cc1cccc(-n2cc3c(=O)[nH]c(N4CCCC4)nc3n2)c1C` [Example 47] was 230 nM. On to `CCCNc1nc2nn(-c3ccccc3C)cc2c(=O)[nH]1` [Example 19], for which half-maximal inhibition (IC50) required 1400 nM. The same measure, in the same setting: as for `Cc1ccccc1-n1cc2c(=O)[nH]c(N3CCC(c4ccccc4)C3)nc2n1` (racemic) [Example 27], the figure is 1200 nM. Regarding `Cc1c2c(=O)[nH]c(N3CCCC3)nc2nn1-c1ccc(C(F)(F)F)cc1` [Example 151], the IC50 turned out to be 50 nM. The compound `Cc1ccccc1-n1cc2c(=O)[nH]c(N3CCC(C)(O)C3)nc2n1` (racemic) [Example 37] yielded an IC50 of 3200 nM. Against the preceding compound, the IC50 is about 64-fold higher. Same read-out and setting: the value for `Cc1cccc(C)c1-n1cc2c(=O)[nH]c(N3CC(OCC(F)(F)F)C3)nc2n1` [Example 51] was 2200 nM; that for `Cc1ccccc1-n1cc2c(=O)[nH]c(N3CCC(O)C3)nc2n1` (racemic) [Example 21] was 1600 nM; that for `O=c1[nH]c(N2CCOCC2)nc2nn(-c3ccc(Br)cc3OC(F)(F)F)cc12` [Example 206] was 12 nM. Still for that read-out and setting: as for `Cc1ccccc1-n1cc2c(=O)[nH]c(N3CC(F)(F)C3)nc2n1` [Example 34], the figure is 470 nM; as for `Cc1cc(C2CC2)cc(F)c1-n1cc2c(=O)[nH]c(N3C[C@@H]4C[C@H]3CO4)nc2n1` [Example 300], 15 nM; as for `Cc1cc(Br)ccc1-n1cc2c(OC(C)C)nc(N3CCOCC3)nc2n1` [Example 136], 230 nM. Still for that read-out and setting: the value for `Cc1cc(Br)ccc1-n1cc2c(OCC3CC3)nc(N3CCOCC3)nc2n1` [Example 155] was 290 nM; that for `Cc1cc(C(F)(F)F)cnc1-n1cc2c(=O)[nH]c(N3CCOCC3)nc2n1` [Example 122] was 180 nM; that for `Cc1ccccc1-n1cc2c(=O)[nH]c(N3CCC3)nc2n1` [Example 16] was 1300 nM. With `O=c1[nH]c(N2CCCC2)nc2nn(-c3c(F)cccc3F)cc12` [Example 10], the IC50 amounted to 2400 nM. The same measure, in the same setting: as for `Cc1cc(Br)ccc1-n1cc2c(=O)n(CCO)c(N3CCOCC3)nc2n1` [Example 163], the figure is 47 nM; as for `O=c1[nH]c(N2CCOCC2)nc2nn(-c3ccc(Br)cc3C(F)(F)F)cc12` [Example 241], 11 nM.

Take `O=c1[nH]c(N2CCOCC2)nc2nn(-c3ccc(C4CC4)cc3CC3CC3)cc12` [Example 321]: the IC50 was 29 nM. `O=c1[nH]c(N2CCCC2)nc2nn(-c3ccc(Cl)cc3F)cc12` [Example 97]: the half-maximal inhibitory concentration (IC50) came to 27 nM.

In turn, `COC(c1cc(C2CC2)ccc1-n1cc2c(=O)[nH]c(N3C[C@H]4C[C@@H]3CO4)nc2n1)C1CC1` (stereo partly shown) [Example 315] came in with an IC50 of 670 nM. With `CN(C)c1nc2nn(-c3ccccc3Cl)cc2c(=O)[nH]1` [Example 4], the IC50 stood at 1700 nM. Compound `Cc1cc(C(C)C)ccc1-n1cc2c(=O)[nH]c(N3CCCC3)nc2n1` [Example 83] yielded an IC50 of 8.4 nM. On the same count and under the same terms, as for `O=c1[nH]c(N2CCOCC2)nc2nn(-c3c(F)cc(C4CC4)cc3C(F)(F)F)cc12` [Example 273], the figure is 13 nM; as for `Cc1cc(C)c(-n2cc3c(=O)[nH]c(N4CCCOCC4)nc3n2)c(C)c1` [Example 100], 20 nM; as for `C[C@@H]1COCCN1c1nc2nn(-c3ccc(Br)cc3C(F)(F)F)cc2c(=O)[nH]1` [Example 258], 23 nM. On the same count and under the same terms, as for `Cc1cc(Cl)cc(C=O)c1-n1cc2c(=O)[nH]c(N3CCOCC3)nc2n1` [Example 160], the figure is 36 nM; as for `O=c1[nH]c(N2CC(O)C2)nc2nn(-c3ccc(C(F)(F)F)cc3Cl)cc12` [Example 182], 79 nM. The same measure, in the same setting: as for `Cc1cc(Br)cc(Cl)c1-n1cc2c(=O)[nH]c(N3CC4CC(C3)O4)nc2n1` [Example 296], the figure is 14 nM; as for `CCOC1CCN(c2nc3nn(-c4ccccc4C)cc3c(=O)[nH]2)C1` (racemic) [Example 28], 950 nM. Compound `Cc1ccccc1-n1cc2c(=O)[nH]c(N3CCOCC3C)nc2n1` (racemic) [Example 17] registered an IC50 of 2800 nM. On the same count and under the same terms, as for `COCC(=O)N1CCN(c2nc3nn(-c4ccc(Br)cc4C)cc3c(=O)[nH]2)CC1` [Example 141], the figure is 9.6 nM; as for `Cc1cc(C(F)(F)F)cc(C)c1-n1cc2c(=O)[nH]c(N3CCCC3)nc2n1` [Example 281], 13 nM; as for `CNc1nc2nn(-c3ccc(C)cc3C)cc2c(=O)n1C` [Example 80], 570 nM. The compound `Cc1cc(Br)cc(C)c1-n1cc2c(=O)[nH]c(N3C4CC3CN(S(C)(=O)=O)C4)nc2n1` [Example 221] came in with an IC50 of 25 nM.

The compound `Cc1cc(Br)cc(C)c1-n1cc2c(=O)[nH]c(N3CC4(CC(O)C4)C3)nc2n1` [Example 199] yielded an IC50 of 6.8 nM. Same read-out and setting: the value for `Cc1cc(Br)ccc1-n1cc2c(OCCO)nc(N3CCOCC3)nc2n1` [Example 153] was 460 nM.

With `O=c1[nH]c(N2CCCC2)nc2nn(-c3c(Cl)cccc3Cl)cc12` [Example 30, 2-(2,6-dichlorophenyl)-6-(pyrrolidin-1-yl)-2,5-dihydro-4H-pyrazole[3,4-d]pyrimidin-4-one], half-maximal inhibition (IC50) was put at 1100 nM.

Compound `COc1cc(C)c(-n2cc3c(=O)[nH]c(N4CCOCC4)nc3n2)c(C)c1` [Example 253] gave an IC50 of 24 nM. The same measure, in the same setting: the value for `Cc1cc(Br)cc(Cl)c1-n1cc2c(=O)[nH]c(N3CCOCC3)nc2n1` [Example 146] was 9.2 nM; that for `Cc1cc(Br)cc(C(F)(F)F)c1-n1cc2c(=O)[nH]c(N3CCOCC3)nc2n1` [Example 174] was 12 nM. Same read-out and setting: the value for `Cc1cc(C)c(-n2cc3c(=O)[nH]c(N4CCCC(O)C4)nc3n2)c(C)c1` (racemic) [Example 107] was 58 nM; that for `Cc1ccccc1-n1cc2c(=O)[nH]c(Nc3ccccc3)nc2n1` [Example 24] was 2400 nM. On the same count and under the same terms, as for `Cc1cc(C2CC2)cc(Cl)c1-n1cc2c(=O)[nH]c(N3C[C@H]4C[C@@H]3CO4)nc2n1` [Example 287], the figure is 9.6 nM. Consider `[2H]C([2H])([2H])Nc1nc2nn(-c3c(C)cc(C4CC4)cc3C)cc2c(=O)[nH]1` [Example 231], for which the IC50 was found to be 7.7 nM. The compound `Cc1ccc(-n2nc3nc(N4CCCC4)[nH]c(=O)c3c2C)c(C)c1` [Example 55] gave an IC50 of 230 nM. `Cc1cc(C)c(-n2cc3c(=O)[nH]c(N4CCC(CO)CC4)nc3n2)c(C)c1` [Example 115]: the IC50 stood at 35 nM. Same read-out and setting: the value for `Cc1cc(Br)ccc1-n1cc2c(=O)[nH]c(N3CCCOCC3)nc2n1` [Example 142] was 22 nM. `Cc1cc(Br)ccc1-n1cc2c(=O)[nH]c(N3CCN(C4CC4)C(=O)C3)nc2n1` [Example 152]: the IC50 was determined as 77 nM. For the compound `Cc1cc(C(F)(F)F)cc(C)c1-n1cc2c(=O)[nH]c(N3C[C@@H]4C[C@H]3CO4)nc2n1` [Example 250], the IC50 was 8.9 nM. On the same count and under the same terms, as for `Cc1cc(C)c(-n2cc3c(=O)[nH]c(N4CCCC4)nc3n2)c(C)c1` [Example 63], the figure is 17 nM.

In the case of `COc1cc(Br)ccc1-n1cc2c(=O)[nH]c(N3CCOCC3)nc2n1` [Example 304], the midpoint of inhibition, the IC50, lay at 65 nM. This IC50 lies about 3.8-fold higher than the previous one. Still for that read-out and setting: as for `COc1ccc(-n2cc3c(=O)[nH]c(N4CCCC4)nc3n2)c(Br)c1` [Example 307], the figure is 11 nM. The same measure, in the same setting: the value for `Cc1cc(C2(C(F)(F)F)CC2)cc(C)c1-n1cc2c(=O)[nH]c(N3CCOCC3)nc2n1` [Example 276] was 220 nM; that for `Cc1cc(Br)ccc1-n1cc2c(=O)[nH]c(N3CCCC3)nc2n1` [Example 62] was 9.1 nM.

The assay is the same for the next values; noted with them: IL-1β production in THP1-Null cells; test compound 24 μM.
For the compound `N#Cc1ccccc1-n1cc2c(=O)[nH]c(N3CCCC3)nc2n1` [Example 29], 24 µM produced 2% inhibition.

As usually defined, the IC50 is the concentration that gives 50% inhibition. A lower IC50 goes with greater potency in that assay. A word on the inhibition: it is the drop in the measured response relative to a control, in per cent. A higher inhibition goes with a strong effect.

These data come from US20240287079A1, “6-AMINOPYRAZOLOPYRIMIDINE COMPOUND AND PHARMACEUTICAL USE THEREOF” (Japan Tobacco Inc., priority 2021, published 2024).
